Patent US10030047B2 (Hoffmann-La Roche Inc., priority 2015, dated 2018)
≈ marks a conversion by molar mass, not a printed value.

System: A. baumannii strain ATCC19606
Assay: Minimum inhibitory concentration (MIC) determination, microbroth dilution (CLSI)
Type: cell-based
Conditions: Acinetobacter baumannii; A. baumannii ATCC19606; CAMHB; read after 20 hours; >=80% growth inhibition; read-out: ATCC19606 MIC
Procedure: The in vitro antimicrobial activity of the compounds was determined through microbroth minimum inhibitory concentration (MIC) methodology performed according to the Clinical and Laboratory Standard Institute guidelines (CLSI—M07-A9 Jan. 2012. Methods for Dilution Antimicrobial Susceptibility Tests for Bacteria That Grow Aerobically; Approved Standard—Ninth Edition, Clinical and Laboratory Standards Institute, Wayne/PA, US and the CLSI—M100-S24 Jan. 2014. Performance Standards for Antimicrobial Susceptibility Testing; Approved Standard—Fourth Informational Supplement, Clinical and Laboratory Standards Institute, Wayne/PA, US).
The compound stock solution was freshly prepared at 10× the required top concentration for the MIC determination, i.e. at 1280 mg/L, by reconstitution of the dry compound in 50:50 water:DMSO.
Polystyrene non-treated 96 wells microtiter plates were used for preparing panel containing compound serial twofold diluted at two times the final testing concentration (e.g. range from 64 to 0.06 μg/ml) in cation adjusted Mueller Hinton broth medium (CAMHB).
Inoculum was prepared by the “direct colony suspension method”. Colonies of A. baumannii ATCC19606 or clinical isolates were suspended in saline solution and adjusted to 0.5 McFarland, diluted 100 times in CAMHB broth and 50 μl added to each well (final concentration of cells ˜5×10^(5) CFU/ml and Final volume/well of 100 μl). Microtiter plates were sealed and incubated at 35±2° C.
MICs values were read after 20 hours of incubation and recorded as the lowest concentration of the antimicrobial that inhibits more or equal to 80% of growth of the organism as detected by the unaided eye and using a microtiter plate optical density reader (OD 600 nm).
Tables 2, 3, 4 and 5 provide the minimum inhibitory concentration (MIC) in microgram per milliliter of the compounds of present invention obtained against the A. baumannii strain ATCC19606 (Tables 2, 3, 4 and 5).

SMILES	MIC [µg/mL]
CN1C(=O)[C@H](CCCCN)NC(=O)[C@H](CC(N)=O)NCc2cccnc2Sc2c(Cl)cc(Cl)cc2CNC(=O)[C@@H]1Cc1c[nH]c2ccccc12 [Example 127, 2-[(11S,14S,17S)-14-(4-Amino-butyl)-23,25-dichloro-17-(1H-indol-3-ylmethyl)-16-methyl-12,15,18-trioxo-2-thia-4,10,13,16,19-pentaaza-tricyclo[19.4.0.0*3,8*]pentacosa-1(25),3(8),4,6,21,23-hexaen-11-yl]-acetamide]	16 (≈ 21.6 µM)
CN1C(=O)[C@H](CCCCN)NC(=O)CNCc2cccnc2Sc2c(Cl)cc(Cl)cc2CNC(=O)[C@@H]1Cc1c[nH]c2ccccc12 [Example 93, (14S,17S)-14-(4-Amino-butyl)-23,25-dichloro-17-(1H-indol-3-ylmethyl)-16-methyl-2-thia-4,10,13,16,19-pentaaza-tricyclo[19.4.0.0*3,8*]pentacosa-1(25),3,5,7,21,23-hexaene-12,15,18-trione]	16 (≈ 23.4 µM)
CN1C(=O)[C@H](CCCCN)NC(=O)[C@H](CCCN)NCc2cccnc2Sc2c(Cl)cc(C#N)cc2CNC(=O)[C@@H]1Cc1c[nH]c2ccccc12 [Example 185, (11S,14S,17S)-14-(4-Amino-butyl)-11-(3-amino-propyl)-25-chloro-17-(1H-indol-3-ylmethyl)-16-methyl-12,15,18-trioxo-2-thia-4,10,13,16,19-pentaaza-tricyclo[19.4.0.0*3,8*]pentacosa-1(25),3(8),4,6,21,23-hexaene-23-carbonitrile]	0.5 (≈ 0.685 µM)
CN1C(=O)[C@H](CCCCN)NC(=O)[C@H](CCCN)NCc2cc(F)ccc2Sc2ccccc2CNC(=O)[C@@H]1Cc1c[nH]c2ccccc12 [Example 56, (12S,15S,18S)-15-(4-Amino-butyl)-18-(3-amino-propyl)-23-fluoro-12-(1H-indol-3-ylmethyl)-13-methyl-2-thia-10,13,16,19-tetraaza-tricyclo[19.4.0.0*3,8*]pentacosa-1(25),3,5,7,21,23-hexaene-11,14,17-trione]	16 (≈ 23.3 µM)
Cc1cccc2c1Sc1ncccc1CN[C@@H](CCCN)C(=O)N[C@@H](CCCCN)C(=O)N(C)[C@@H](Cc1c[nH]c3ccccc13)C(=O)NC2 [Example 51, (11S,14S,17S)-14-(4-Amino-butyl)-11-(3-amino-propyl)-17-(1H-indol-3-ylmethyl)-16,25-dimethyl-2-thia-4,10,13,16,19-pentaaza-tricyclo[19.4.0.0*3,8*]pentacosa-1(25),3,5,7,21,23-hexaene-12,15,18-trione]	4 (≈ 5.84 µM)
Cc1cc(-c2cc3c(cn2)Sc2ncccc2CN[C@@H](CCCN)C(=O)N[C@@H](CCCCN)C(=O)N(C)[C@@H](Cc2c[nH]c4ccccc24)C(=O)NC3)ccn1 [Example 167, (7S,10S,13S)-13-((1H-Indol-3-yl)methyl)-10-(4-aminobutyl)-7-(3-aminopropyl)-12-methyl-18-(2-methylpyridin-4-yl)-6,7,9,12,13,15,16-octahydrodipyrido[2,3-b:4′,3′-p][1,5,8,11,14]thiatetraazacycloheptadecine-8,11,14(5H)-trione]	32 (≈ 41.9 µM)
CN1C(=O)[C@H](CCCCN)NC(=O)[C@H](CCC(N)=O)NCc2cccnc2Sc2c(Cl)cc(N3CCOCC3)cc2CNC(=O)[C@@H]1Cc1c[nH]c2ccccc12 [Example 137, 3-[(11S,14S,17S)-14-(4-Amino-butyl)-25-chloro-17-(1H-indol-3-ylmethyl)-16-methyl-23-morpholin-4-yl-12,15,18-trioxo-2-thia-4,10,13,16,19-pentaaza-tricyclo[19.4.0.0*3,8*]pentacosa-1(25),3(8),4,6,21,23-hexaen-11-yl]-propionamide]	32 (≈ 39.8 µM)
Cc1[nH]c2ccccc2c1C[C@H]1C(=O)NCc2c(-c3ccncc3)ccc(Cl)c2Sc2ncccc2CN[C@@H](CCCN)C(=O)N[C@@H](CCCCN)C(=O)N1C [Example 202, (11S,14S,17S)-14-(4-Amino-butyl)-11-(3-amino-propyl)-25-chloro-16-methyl-17-(2-methyl-1H-indol-3-ylmethyl)-22-pyridin-4-yl-2-thia-4,10,13,16,19-pentaaza-tricyclo[19.4.0.0*3,8*]pentacosa-1(25),3(8),4,6,21,23-hexaene-12,15,18-trione]	0.12 (≈ 0.151 µM)
C[C@@H]1NC(=O)[C@H](Cc2c[nH]c3ccccc23)N(C)C(=O)[C@H](CCCCN)NC(=O)[C@H](CCCN)NCc2ccccc2Sc2ccc(Cl)cc21 [Example 20, (9S,12S,15S,18S)-15-(4-Amino-butyl)-18-(3-amino-propyl)-6-chloro-12-(1H-indol-3-ylmethyl)-9,13-dimethyl-2-thia-10,13,16,19-tetraaza-tricyclo[19.4.0.0*3,8*]pentacosa-1(25),3,5,7,21,23-hexaene-11,14,17-trione]	2 (≈ 2.78 µM)
COc1cc(-c2cc(Cl)c3c(c2)CNC(=O)[C@H](Cc2c[nH]c4ccccc24)N(C)C(=O)[C@H](CCCCN)NC(=O)[C@H](CCCN)NCc2cccnc2S3)ccn1 [Example 102, (11S,14S,17S)-14-(4-Amino-butyl)-11-(3-amino-propyl)-25-chloro-17-(1H-indol-3-ylmethyl)-23-(2-methoxy-pyridin-4-yl)-16-methyl-2-thia-4,10,13,16,19-pentaaza-tricyclo[19.4.0.0*3,8*]pentacosa-1(25),3,5,7,21,23-hexaene-12,15,18-trione]	0.5 (≈ 0.615 µM)
CN1C(=O)[C@H](CCCCN)NC(=O)[C@H](CCCN)NCc2cccnc2Sc2c(Cl)ccc(-c3ccc(O)nc3)c2CNC(=O)[C@@H]1Cc1c[nH]c2ccccc12 [Example 230, (11S,14S,17S)-14-(4-Amino-butyl)-11-(3-amino-propyl)-25-chloro-22-(6-hydroxy-pyridin-3-yl)-17-(1H-indol-3-ylmethyl)-16-methyl-2-thia-4,10,13,16,19-pentaaza-tricyclo[19.4.0.0*3,8*]pentacosa-1(21),3,5,7,22,24-hexaene-12,15,18-trione]	0.12 (≈ 0.15 µM)
Cc1[nH]c2ccccc2c1C[C@H]1C(=O)NCc2cc(Cl)cc(Cl)c2Sc2ccccc2CN[C@@H](CCCN)C(=O)N[C@@H](CCCCN)C(=O)N1C [Example 59, (12S,15S,18S)-15-(4-Amino-butyl)-18-(3-amino-propyl)-4,6-dichloro-13-methyl-12-(2-methyl-1H-indol-3-yl)-2-methyl)-2-thia-10,13,16,19-tetraaza-tricyclo[19.4.0.0*3,8*]pentacosa-1(21),3,5,7,22,24-hexaene-11,14,17-trione]	0.5 (≈ 0.664 µM)
CC(C)C[C@@H]1NCc2cccnc2Sc2c(Cl)cc(Cl)cc2CNC(=O)[C@H](Cc2c[nH]c3ccccc23)N(C)C(=O)[C@H](CCCCN)NC1=O [Example 101, (11S,14S,17S)-14-(4-Amino-butyl)-23,25-dichloro-17-(1H-indol-3-ylmethyl)-11-isobutyl-16-methyl-2-thia-4,10,13,16,19-pentaaza-tricyclo[19.4.0.0*3,8*]pentacosa-1(25),3,5,7,21,23-hexaene-12,15,18-trione]	32 (≈ 43.3 µM)
CN1C(=O)[C@H](CCCCN)NC(=O)[C@H](CCCN)NCc2nccnc2Sc2c(Cl)ccc(Cl)c2CNC(=O)[C@@H]1Cc1c[nH]c2ccccc12 [Example 110, (11S,14S,17S)-14-(4-Amino-butyl)-11-(3-amino-propyl)-22,25-dichloro-17-(1H-indol-3-ylmethyl)-16-methyl-2-thia-4,7,10,13,16,19-hexaaza-tricyclo[19.4.0.0*3,8*]pentacosa-1(25),3,5,7,21,23-hexaene-12,15,18-trione]	0.5 (≈ 0.675 µM)
CN1C(=O)[C@H](CCCCN)NC(=O)[C@H](CCCN)NCc2cccnc2Sc2c(Cl)cc(-c3ccc(O)nc3)cc2CNC(=O)[C@@H]1Cc1c[nH]c2ccccc12 [Example 165, (11S,14S,17S)-14-(4-Amino-butyl)-11-(3-amino-propyl)-25-chloro-23-(6-hydroxy-pyridin-3-yl)-17-(1H-indol-3-ylmethyl)-16-methyl-2-thia-4,10,13,16,19-pentaaza-tricyclo[19.4.0.0*3,8*]pentacosa-1(25),3(8),4,6,21,23-hexaene-12,15,18-trione]	4 (≈ 5.01 µM)
CN1C(=O)[C@H](CCCCN)NC(=O)[C@H](CCCN)NCc2cccnc2Sc2c(Cl)ccc(-c3ccccc3)c2CNC(=O)[C@@H]1Cc1c[nH]c2ccccc12 [Example 129, (11S,14S,17S)-14-(4-Amino-butyl)-11-(3-amino-propyl)-25-chloro-17-(1H-indol-3-ylmethyl)-16-methyl-22-phenyl-2-thia-4,10,13,16,19-pentaaza-tricyclo[19.4.0.0*3,8*]pentacosa-1(25),3(8),4,6,21,23-hexaene-12,15,18-trione]	0.25 (≈ 0.32 µM)
CN1C(=O)[C@H](CCCCN)NC(=O)[C@H](CCCN)NCc2cccnc2Sc2c(Cl)cc(N3CCC(N)C3)cc2CNC(=O)[C@@H]1Cc1c[nH]c2ccccc12 (stereo partly drawn) [Example 174, (11S,14S,17S)-14-(4-Amino-butyl)-11-(3-amino-propyl)-23-(3-amino-pyrrolidin-1-yl)-25-chloro-17-(1H-indol-3-ylmethyl)-16-methyl-2-thia-4,10,13,16,19-pentaaza-tricyclo[19.4.0.0*3,8*]pentacosa-1(25),3(8),4,6,21,23-hexaene-12,15,18-trione]	16 (≈ 20.3 µM)
